In patent US20150057375A1, “USE OF IMPROVED N-ALKYL PYRROLIDONE SOLVENT” (TAMINCO, priority 2012, published 2015):
“Also recorded” adds a separate entry of the source.

Columns and labels:
[1] = EU classification / screening test; cited from earlier work
[2] = tested on: female Han Wistar rat (embryo and foetus); assay: Screening study of effects on development of the embryo and foetus after gavage of pregnant rats (similar to OECD 422); assay type: in vivo; conditions: for Bone and cartilage abnormalities and variations / ossification and supernumerary ribs; test item-related effects in the foetuses / Weights of the foetuses: 100 mg/kg body weight/day to dams
Experimental: The purpose of this study was to detect effects of 4 test items or compounds on the development of the embryo and foetus consequent to exposure of the female Han Wistar rat to the test items from day 6 post coitum (implantation) to day 20 post coitum (the day prior to Caesarean section). Particular attention was given to the foetal skeleton. Each group received one test compound, at a dose level of 100 or 500 mg/kg/day. The results were compared to a negative control group, which were administered distilled water (Aqua dest.).
Each group consisted of 5 mated females, treated by gavage, once daily as follows:
A standard dose volume of […] body weight with a daily adjustment to the actual body weight was used.
The foetuses were removed from the uterus, sexed, weighed individually, examined for gross external abnormalities, sacrificed by a subcutaneous injection of sodium pentobarbital, eviscerated and with the exception of over the paws, the skin was removed and discarded. Carcasses were processed through solutions of ethanol, glacial acetic acid with Alcian blue (for cartilage staining), potassium hydroxide with Alizarin red S (for clearing and staining ossified bone) and aqueous glycerine for preservation and storage. The skeletons were examined and all abnormal findings and variations were recorded.

rat = conditions: in vivo; cited from earlier work
[3] = 100 mg/kg body weight/day, gavage
[4] = 500 mg/kg body weight/day to dams
[5] = 500 mg/kg body weight/day, gavage
[6] = 500 mg/kg body weight/day, gavage once daily, day 6-20 post coitum, 5 mated females per group

| Structure (SMILES) | Weights of the foetuses [2] | Weights of the foetuses (male and female) [2, 4] | Maternal food consumption at start of treatment, days 6-9 p.c. [2, 5] | Bedding in the mouth (females/dams affected) [2, 6] | Reprotoxicity [1] | Bone and cartilage abnormalities and variations / ossification and supernumerary ribs; test item-related effects in the foetuses [2] | Maternal mean body weight, body weight gain and corrected body weight gain [2, 3] | Maternal mean food consumption vs control group [2, 3] | Incidence of zygomatic arch fusion in the skull of foetuses [2, 4] | Maternal absolute body weight [2, 5] | Maternal body weight gain [2, 5] | Maternal corrected body weight gain [2, 5] | other results |
| --- | --- | --- | --- | --- | --- | --- | --- | --- | --- | --- | --- | --- | --- |
| CC1CCC(=O)N1C (centres unmarked) [DMP, 1,5-dimethylpyrrolidone] | – | – | – | – | suspected as being reprotoxic | – | – | – | – | – | – | – | – |
| CCCN1CCCC1=O [N-n-propylpyrrolidone] | – | statistically significantly reduced | statistically significantly reduced | all females | – | – | – | – | increased incidence | at no time statistically significantly reduced | statistically significantly reduced | reduced without statistical significance | Incidence of non-ossified cervical vertebral bodies and supernumerary ribs in foetuses [2, 4]: slightly increased incidence; Mean food consumption compared to the control group ([2]; 500 mg/kg body weight/day, treatment period days 6-21 p.c.): −9.1%; Maternal corrected body weight gain ([2]; 500 mg/kg body weight/day, control group 11.1%): 7.6%; Maternal body weight gain over the treatment period ([2]; 500 mg/kg body weight/day, control group 49%): 36% |
| CN1CCCC1=O [NMP, N-methylpyrrolidone] | – | – | – | – | reprotoxic category 2 | – | – | – | – | – | – | – | Toxicity, LD50 oral rat (rat): 3914 mg/kg |

The next lines start with results.

| Weights of the foetuses [2] | Weights of the foetuses (male and female) [2, 4] | Maternal food consumption at start of treatment, days 6-9 p.c. [2, 5] | Bedding in the mouth (females/dams affected) [2, 6] | Structure (SMILES) | Reprotoxicity [1] | Bone and cartilage abnormalities and variations / ossification and supernumerary ribs; test item-related effects in the foetuses [2] | Maternal mean body weight, body weight gain and corrected body weight gain [2, 3] | Maternal mean food consumption vs control group [2, 3] | Incidence of zygomatic arch fusion in the skull of foetuses [2, 4] | Maternal absolute body weight [2, 5] | Maternal body weight gain [2, 5] | Maternal corrected body weight gain [2, 5] | other results |
| --- | --- | --- | --- | --- | --- | --- | --- | --- | --- | --- | --- | --- | --- |
| not affected | – | – | – | CC(C)CN1CCCC1=O [N-isobutylpyrrolidone] | – | no test item-related findings; also recorded: No test item-related effects | no effects; also recorded: not affected | no effects | – | – | – | – | – |
| – | statistically significantly reduced | decreased slightly | 4 | CC(C)N1CCCC1=O [N-isopropylpyrrolidone] | – | – | – | – | slightly increased | did not have a clear effect | statistically significantly reduced | reduced but not statistically significantly | Incidence of cervical ribs in foetuses [2, 4]: clearly increased incidence; Incompletely ossified cranial structures in foetuses [2, 4]: slightly increased; Number of foetuses per dam [2, 4]: decreased; Post-implantation loss and embryonic resorptions [2, 4]: increased; Maternal mean food consumption after days 6-9 p.c. / overall vs control group [2, 5]: recovered thereafter |
| not affected | – | – | – | CCCCN1CCCC1=O [N-n-butylpyrrolidone] | – | no test item-related findings; also recorded: No test item-related effects | No effects | No effects; also recorded: not considered to have been affected | – | – | – | – | Bedding in the mouth (females affected) ([2]; 100 mg/kg body weight/day, gavage once daily, day 6-20 post coitum, 5 mated females per group): one female |
